Measured values as given in patent US20200121801A1, “DRUG DELIVERY CONJUGATES CONTAINING UNNATURAL AMINO ACIDS AND METHODS FOR USING” (priority 2012, published 2020).

How the values were obtained:
RAW264.7 macrophages = assay: XTT cell viability assay on RAW264.7 macrophages; type: cell-based, murine
Description: METHOD. Inhibition of Cellular DNA Synthesis. The compounds described herein are evaluated using an in vitro cytotoxicity assay that predicts the ability of the drug to inhibit the growth of folate receptor-positive cells, such as KB cells, RAW264.7 macrophages, and the like. It is to be understood that the choice of cell type can made on the basis of the susceptibility of those selected cells to the drug that forms the conjugate. The test compounds are comprised of folate linked to a respective chemotherapeutic drug, as prepared according to the processes described herein. The test cells are exposed to varying concentrations of folate-drug conjugate, and also in the absence or presence of at least a 100-fold excess of folic acid to assess activity as being specific to folate receptor mediation.
EXAMPLE. […] The anti-proliferative activity of EC1669 is measured in a XTT cell viability assay (FIG. 2) on RAW264.7 cells after a 2-h exposure and a total of 72 h incubation.
RAW264.7 macrophages are susceptible to the drug forming the EC1669 conjugate, aminopterin. The cell viability is assessed by adding XTT (2,3-bis(2-methoxy-4-nitro-5-sulfo-phenyl)-2H-tetrazolium-5-carboxanilide) following the manufacturer's instructions. […] The observed anti-proliferative effect was 100% competable in the presence of 100-fold excess folic acid (FA), indicating a FR-specific mode of action for EC1669.

[1] = test system: experimental autoimmune encephalomyelitis; assay: Autoimmune encephalomyelitis (EAE) model; type: in vivo, rats
Description: METHOD. Autoimmune Encephalomyelitis (EAE) Model. EAE is induced in rats by immunization against 25 μg of guinea pig myelin basic protein (MBP) formulated with CFA containing 1 mg of grounded Mycobacterium tuberculosis H37Ra. Pertussis toxin is given intraperitoneally (1 μg/rat) to enhance the organ-specific autoimmunity. Starting 8 days after induction, rats are divided into […]: (1) untreated control (n=8), (2) test compound (n=7), and (3) test compound plus competitor compound (n=7), such as EC0923 competition. All treatments start on day 8 after EAE induction. The animals in the EAE control group are left untreated. […] The clinical severity of EAE is monitored on a daily basis and graded on a scale of 0 to 5 per animal. The clinical signs of ascending paralysis of EAE rats are divided into a 0-5 scale: 0=No disease, 0.5=distal limp tail, 1=limp tail, 2=mild paraparesis; ataxia-weakened hind limbs, 3=moderate paraparesis; hind limbs paresis, 4=complete hind limb paralysis, 5=complete hind limb paralysis and incontinence (euthanasia). On day 16, the animals are euthanized and brain and spinal cords are fixed in formalin for histology.

[2] = target: T1, folate receptors (FR) on CHO-FRβ cells (Homo sapiens, UniProt P14207); assay: Relative affinity assay (3H-folic acid competition) on CHO-FRβ cells; type: binding; details: 1 h at 37° C.
T1 construct: expressed in transfected cells; host or cells: CHO cells (CHO-FRβ)
T1 sequence (P14207 17-230): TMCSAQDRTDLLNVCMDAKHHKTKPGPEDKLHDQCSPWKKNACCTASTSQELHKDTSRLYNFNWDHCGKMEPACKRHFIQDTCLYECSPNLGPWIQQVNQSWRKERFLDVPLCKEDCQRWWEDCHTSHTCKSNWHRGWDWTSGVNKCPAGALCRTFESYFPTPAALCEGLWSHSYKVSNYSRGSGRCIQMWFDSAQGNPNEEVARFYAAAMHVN

N=c1[nH]c(N)nc2ncc(CNc3ccc(C(=O)N[C@@H](CCC(=O)NNC(=O)OCCSSC[C@@H](NC(=O)[C@H](CCC(=O)NC[C@H](O)[C@@H](O)[C@H](O)[C@H](O)CO)NC(=O)[C@@H](CCC(=O)O)NC(=O)[C@H](CCC(=O)NC[C@H](O)[C@@H](O)[C@H](O)[C@H](O)CO)NC(=O)[C@@H](CCC(=O)O)NC(=O)[C@H](CCC(=O)NC[C@H](O)[C@@H](O)[C@H](O)[C@H](O)CO)NC(=O)CC[C@H](NC(=O)c4ccc(NCc5cnc6nc(N)[nH]c(=O)c6n5)cc4)C(=O)O)C(=O)O)C(=O)O)cc3)nc12 [EC1669]
IC50 (RAW264.7 macrophages; 2-h exposure, total of 72 h incubation, read-out: relative IC50, inhibition of cell proliferation): ~1.2 nM
anti-proliferative effect competable by folic acid (RAW264.7 macrophages; 100-fold excess folic acid): 100%
therapeutic effect with folate receptor competitor EC0923 ([1]; excess EC0923): blocked
efficacy against EAE (clinical score) ([1]; s.c. every other day from day 8): effectively suppresses the neurological symptoms
treatment-related weight loss ([1]; when dosed alone): not observed
relative affinity (normalized against folic acid, set to 1) [2]: 0.13
